Results taken from patent US8530493B2, “Indolopyridines as Eg5 kinesin modulators” (4SC AG, priority 2006, dated 2013).

Tested on: RKO p21 uninduced (proliferating) colon adenocarcinoma cells
Experiment: Alamar Blue cell viability assay, RKO p21 uninduced (proliferating)
Type: cell-based
Details: Homo sapiens, Table B3, anti-proliferative/cytotoxic activity, 72 hours, read-out: −log EC50 RKO p21 uninduced (proliferating) (converted)
Summary of the method: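 RKO p21 or p27 subclones grown without Ponasterone A, i.e. proliferating, exposed 24 h after seeding to semi-log compound dilutions in DMEM/10% FCS (1% DMSO controls) for 72 h at 37° C. Alamar Blue fluorescence (544/590 nm) read relative to untreated cells; EC50 from dose-response curves, given as −log EC50 (mol/l).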

`CCN(C)CCCN1C(=O)N2[C@H](c3cccc(O)c3)c3[nH]c4ccc(OC(F)F)cc4c3C[C@@]2(C)C1=O` (racemic) [Example 247, (3aSR,10RS)-6-(1,1-Difluoro-methoxy)-2-[3-(ethyl-methyl-amino)-propyl]-10-(3-hydroxy-phenyl)-3a-methyl-3a,4,9,10-tetrahydro-2,9,10a-triaza-cyclopenta[b]fluorene-,3-dione] and `CCN(CCO)CCN1C(=O)N2[C@H](c3cccc(O)c3)c3[nH]c4ccc(OC(F)F)cc4c3C[C@@]2(C)C1=O` (racemic) [Example 277, (3aSR,10RS)-6-(1,1-Difluoro-methoxy)-2-{2-[ethyl-(2-hydroxy-ethyl)-amino]-ethyl}-10-(3-hydroxy-phenyl)-3a-methyl-3a,4,9,10-tetrahydro-2,9,10a-triaza-cyclopenta[b]fluorene-1,3-dione] cannot be ordered by EC50: at most 39.8 nM for the first, 39.8 to 251 nM for the second.

`C=CCNCCN1C(=O)N2[C@H](c3cccc(O)c3)c3[nH]c4ccc(OC(F)F)cc4c3C[C@@]2(C)C1=O` (racemic) [Example 274, (3aSR,10RS)-2-(2-Allylamino-ethyl)-6-(1,1-difluoro-methoxy)-10-(3-hydroxy-phenyl)-3a-methyl-3a,4,9,10-tetrahydro-2,9,10a-triaza-cyclopenta[b]fluorene-1,3-dione] and `CCNCCN1C(=O)N2[C@H](c3cccc(O)c3)c3[nH]c4ccc(OCC)cc4c3C[C@@]2(C)C1=O` (racemic) [Example 296, (3aSR,10RS)-6-Ethoxy-2-(2-ethylamino-ethyl)-10-(3-hydroxy-phenyl)-3a-methyl-3a,4,9,10-tetrahydro-2,9,10a-triaza-cyclopenta[b]fluorene-1,3-dione] cannot be ordered by EC50: at most 39.8 nM for the first, at most 39.8 nM for the second.

`C[C@@]12Cc3c([nH]c4ccc(OC(F)F)cc34)[C@@H](c3cccc(O)c3)N1C(=O)N(CCCN1CCOCC1)C2=O` (racemic) [Example 236, (3aSR,10RS)-6-(1,1-Difluoro-methoxy)-10-(3-hydroxy-phenyl)-3a-methyl-2-(3-morpholin-4-yl-propyl)-3a,4,9,10-tetrahydro-2,9,10a-triaza-cyclopenta[b]fluorene-1,3-dione] and `C[C@@]12Cc3c([nH]c4cc(F)c(Cl)cc34)[C@@H](c3cccc(O)c3)N1C(=O)N(CCCN1CCOCC1)C2=O` (racemic) [Example 475, (3aSR,10RS)-6-Chloro-7-fluoro-10-(3-hydroxy-phenyl)-3a-methyl-2-(3-morpholin-4-yl-propyl)-3a,4,9,10-tetrahydro-2,9,10a-triaza-cyclopenta[b]fluorene-1,3-dione] fall in the same range of EC50: 39.8 to 251 nM for the first, 39.8 to 251 nM for the second.

`COc1ccc2[nH]c3c(c2c1)C[C@@]1(C)C(=O)N(CCCN2CCN(C(C)=O)CC2)C(=O)N1[C@@H]3c1cccc(O)c1` (racemic) [Example 151, (3aSR,10RS)-2-[3-(4-Acetyl-piperazin-1-yl)-propyl]-10-(3-hydroxy-phenyl)-6-methoxy-3a-methyl-3a,4,9,10-tetrahydro-2,9,10a-triaza-cyclopenta[b]fluorene-1,3-dione] and `COc1cc2c3c([nH]c2cc1F)[C@@H](c1cccc(O)c1)N1C(=O)N(CCCN2CCN(C)CC2)C(=O)[C@]1(C)C3` (racemic) [Example 325, (3aSR,10RS)-7-Fluoro-10-(3-hydroxy-phenyl)-6-methoxy-3a-methyl-2-[3-(4-methyl-piperazin-1-yl)-propyl]-3a,4,9,10-tetrahydro-2,9,10a-triaza-cyclopenta[b]fluorene-1,3-dione] fall in the same range of EC50: 39.8 to 251 nM for the first, 39.8 to 251 nM for the second.

`C[C@@]12Cc3c([nH]c4ccc(Br)cc34)[C@@H](c3cccc(O)c3)N1C(=O)N(CCCN1CCCC1)C2=O` (racemic) [Example 219, (3aSR,10RS)-6-Bromo-10-(3-hydroxy-phenyl)-3a-methyl-2-(3-pyrrolidin-1-yl-propyl)-3a,4,9,10-tetrahydro-2,9,10a-triaza-cyclopenta[b]fluorene-1,3-dione] and `COc1cc2c3c([nH]c2cc1F)[C@@H](c1cccc(O)c1)N1C(=O)N(CCN2CCCCC2)C(=O)[C@]1(C)C3` (racemic) [Example 263, (3aSR,10RS)-7-Fluoro-10-(3-hydroxy-phenyl)-6-methoxy-3a-methyl-2-(2-piperidin-1-yl-ethyl)-3a,4,9,10-tetrahydro-2,9,10a-triaza-cyclopenta[b]fluorene-1,3-dione] cannot be ordered by EC50: at most 39.8 nM for the first, 39.8 to 251 nM for the second.

`COc1ccc2[nH]c3c(c2c1F)C[C@@]1(C)C(=O)N(CCNCC2CC2)C(=O)N1[C@@H]3c1cccc(O)c1` (racemic) [Example 410, (3aSR,10RS)-2-[2-(Cyclopropylmethyl-amino)-ethyl]-5-fluoro-10-(3-hydroxy-phenyl)-6-methoxy-3a-methyl-3a,4,9,10-tetrahydro-2,9,10a-triaza-cyclopenta[b]fluorene-1,3-dione] and `COCCNCCN1C(=O)N2[C@H](c3cccc(O)c3)c3[nH]c4cc(F)c(Cl)cc4c3C[C@@]2(C)C1=O` (racemic) [Example 343, (3aSR,10RS)-6-Chloro-7-fluoro-10-(3-hydroxy-phenyl)-2-[2-(2-methoxy-ethylamino)-ethyl]-3a-methyl-3a,4,9,10-tetrahydro-2,9,10a-triaza-cyclopenta[b]fluorene-1,3-dione] cannot be ordered by EC50: 39.8 to 251 nM for the first, at most 39.8 nM for the second.

`CCOc1ccc2[nH]c3c(c2c1)C[C@@]1(C)C(=O)N(CCNCC(C)C)C(=O)N1[C@@H]3c1cccc(O)c1` (racemic) [Example 153, (3aSR,10RS)-6-Ethoxy-10-(3-hydroxy-phenyl)-2-(2-isobutylamino-ethyl)-3a-methyl-3a,4,9,10-tetrahydro-2,9,10a-triaza-cyclopenta[b]fluorene-1,3-dione] and `COc1ccc2[nH]c3c(c2c1)C[C@@]1(C)C(=O)N(CCCN(C)C)C(=O)N1[C@@H]3c1cccc(O)c1` [Example 540, (3aS,10R)-2-(3-Dimethylamino-propyl)-10-(3-hydroxy-phenyl)-6-methoxy-3a-methyl-3a,4,9,10-tetrahydro-2,9,10a-triaza-cyclopenta[b]fluorene-1,3-dione] cannot be ordered by EC50: at most 39.8 nM for the first, at most 39.8 nM for the second.

`COCCNCCCN1C(=O)N2[C@H](c3cccc(O)c3)c3[nH]c4ccc(Cl)cc4c3C[C@@]2(C)C1=O` (racemic) [Example 185, (3aSR,10RS)-6-Chloro-10-(3-hydroxy-phenyl)-2-[3-(2-methoxy-ethylamino)-propyl]-3a-methyl-3a,4,9,10-tetrahydro-2,9,10a-triaza-cyclopenta[b]fluorene-1,3-dione] and `COc1cc2c3c([nH]c2cc1F)[C@@H](c1cccc(O)c1)N1C(=O)N(CCN2CC=CC2)C(=O)[C@]1(C)C3` (racemic) [Example 262, (3aSR,10RS)-2-[2-(2,5-Dihydro-pyrrol-1-yl)-ethyl]-7-fluoro-10-(3-hydroxy-phenyl)-6-methoxy-3a-methyl-3a,4,9,10-tetrahydro-2,9,10a-triaza-cyclopenta[b]fluorene-1,3-dione] cannot be ordered by EC50: at most 39.8 nM for the first, 39.8 to 251 nM for the second.

For `COc1cc2c3c([nH]c2cc1F)[C@@H](c1cccc(O)c1)N1C(=O)N(CCN2CCC(C)CC2)C(=O)[C@]1(C)C3` (racemic) [Example 264, (3aSR,10RS)-7-Fluoro-10-(3-hydroxy-phenyl)-6-methoxy-3a-methyl-2-[2-(4-methyl-piperidin-1-yl)-ethyl]-3a,4,9,10-tetrahydro-2,9,10a-triaza-cyclopenta[b]fluorene-1,3-dione], the EC50 was 39.8 to 251 nM.
